The results in this text go back to ChEMBL document CHEMBL2169830, “Identification, synthesis, and biological evaluation of the metabolites of 3-amino-6-(3'-aminopropyl)-5H-indeno[1,2-c]isoquinoline-5,11-(6H)dione (AM6-36), a promising rexinoid lead compound for the development of cancer chemotherapeutic and chemopreventive agents” (J Med Chem, 2012).

Data set [1] is described as follows: Cytotoxicity against african green monkey COS1 cells assessed as cell survival at 40 uM relative to control. Particulars: chlorocebus aethiops, COS-1 cells; read-out: Survival. In kind it is cell-based.
Data set [2] addresses T1, Retinoic acid receptor RXR-alpha (Homo sapiens) (UniProt P19793).
T1 sequence (whole entry): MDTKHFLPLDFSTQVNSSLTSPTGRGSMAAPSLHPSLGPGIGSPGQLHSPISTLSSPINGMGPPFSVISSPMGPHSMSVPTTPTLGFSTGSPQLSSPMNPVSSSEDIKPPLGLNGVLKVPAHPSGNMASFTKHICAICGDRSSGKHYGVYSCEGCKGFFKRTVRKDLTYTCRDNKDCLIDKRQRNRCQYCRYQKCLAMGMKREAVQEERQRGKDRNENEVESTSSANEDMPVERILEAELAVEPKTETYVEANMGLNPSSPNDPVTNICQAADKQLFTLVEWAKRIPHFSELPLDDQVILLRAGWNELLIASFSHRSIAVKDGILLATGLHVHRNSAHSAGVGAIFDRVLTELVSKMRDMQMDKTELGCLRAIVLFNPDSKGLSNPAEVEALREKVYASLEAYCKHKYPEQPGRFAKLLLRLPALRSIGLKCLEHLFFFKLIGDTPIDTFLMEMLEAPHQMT
The data set can be described thus: Agonist activity at human RXRalpha expressed in african green monkey COS1 cells assessed as induction of RXRE transcriptional activity at 12.5 uM after 12 hrs by luciferase reporter gene assay relative to control. The conditions noted are these: COS-1. In kind it is functional, cell-based.

Data set [3] in a line: Cytotoxicity against human HEK293 cells assessed as cell survival at 50 uM relative to control. Type of data set: cell-based. The conditions noted are these: read-out: Survival.
Data set [4] in a line: Cytotoxicity against african green monkey COS1 cells assessed as cell survival at 50 uM relative to control. Type of data set: cell-based. The conditions noted are these: chlorocebus aethiops, COS-1 cells; read-out: Survival.
Data set [5] has as its system HEK293. Description: Inhibition of TNFalpha-induced human NFkappaB activity in HEK293 cells at 50 uM incubated for 6 hrs followed by compound wash out measured after 5 mins by luciferase assay. In kind it is cell-based.
Data set [6] can be described thus: Inhibition of TNFalpha-induced human NFkappaB activity in HEK293 cells incubated for 6 hrs followed by compound wash out measured after 5 mins by luciferase assay. In kind it is cell-based.
The target of data set [7] is T2, Retinoic acid receptor RXR-alpha (Homo sapiens, UniProt P19793).
T2 sequence (P19793 whole entry): T1 sequence (whole entry)
The data set can be described thus: Agonist activity at human RXRalpha expressed in african green monkey COS1 cells assessed as induction of RXRE transcriptional activity after 12 hrs by luciferase reporter gene assay. In kind it is functional, cell-based, COS-1.

Data set [8] concerns HEK293. The data set can be described thus: Cytotoxicity against human HEK293 cells. Type of data set: cell-based.

Take `C=C(c1ccc(C(=O)O)cc1)c1cc2c(cc1C)C(C)(C)CCC2(C)C` [BEXAROTENE]: the viability at 40 µM in data set [1] was found to be 74.5%.

For orientation: inhibition means how much of the control response was suppressed. `CNc1ccc2c3c(n(CCCN)c(=O)c2c1)-c1ccccc1C3=O`: the fold change (FC) in data set [2] was found to be 6.09. Besides, the results for the viability at 50 µM in data set [3] and in data set [4] were 99.4% and below 50%, respectively. For the same compound, the inhibition in the data set with HEK293 [5] came out at 0%.

Broadly, the IC50 is the concentration that inhibits the measured activity by half. Usually EC50 stands for the concentration at which the effect is half-maximal. Take `CC(=O)NCCCn1c2c(c3ccc(N)cc3c1=O)C(=O)c1ccccc1-2`: in data set [6], 14.4 µM corresponded to half-maximal inhibition (IC50). Further, in data set [7], the EC50 was found to be 20.9 µM. Also, the fold change (FC) in data set [2] is 3.52. The viability at 50 µM in data set [3] is 106%; in data set [4], 75.2%. The inhibition in the data set on HEK293 [5] came out at 81.8%.

`CNCCCn1c2c(c3ccc(N)cc3c1=O)C(=O)c1ccccc1-2` had an IC50 in data set [6] of 39.8 µM. Besides, the fold change (FC) in data set [2] worked out at 8.97. For the same compound, the viability at 50 µM in data set [3] was 117%; in data set [4], 64.5%. For the same compound, in the data set on HEK293 [5], the inhibition worked out at 63.1%.

Turning to `CC(=O)Nc1ccc2c3c(n(CCCN)c(=O)c2c1)-c1ccccc1C3=O`, the EC50 in data set [7] is above 41.4 µM. Also, in data set [2], the fold change (FC) is 3.55. The viability at 50 µM in data set [3] was found to be 122%; in data set [4] it was 74.5%. Also, in the data set with HEK293 [5], the inhibition came to 0%.

Take `NCCCn1c2c(c3ccc([N+](=O)[O-])cc3c1=O)C(=O)c1ccccc1-2`: the half-inhibitory concentration (IC50) in the data set with HEK293 [8] stood at 16.9 µM; in data set [6], 2.6 µM. The viability at 50 µM in data set [3] and in data set [4] was below 50% throughout. In addition, the inhibition with HEK293 [5] was found to be 80.8%.

With `O=C1c2ccccc2-c2c1c1ccc([N+](=O)[O-])cc1c(=O)n2CCCBr`, the viability at 40 µM in data set [1] stood at 100%. Moreover, in data set [3], the viability at 50 µM worked out at 118%. Besides, the inhibition with HEK293 [5] was found to be 21.8%.

Take `CNc1ccc2c3c(n(CCCN)c(=O)c2c1)-c1ccccc1C3O` (stereo not drawn): the IC50 in data set [6] was found to be 0.7 µM. Besides, the viability at 50 µM turned out to be 95% in data set [3] and 63.6% in data set [4]. Further, the inhibition in the data set with HEK293 [5] was 69.2%.
